1 compound from article PMC9364112, “A natural fusion of flavodiiron, rubredoxin, and rubredoxin oxidoreductase domains is a self-sufficient water-forming oxidase of Trichomonas vaginalis” (The Journal of Biological Chemistry, 2022) can be followed below.

Common to all, as to assay: LC-MS quantification of bound flavin
Common to all, as to format: binding

One assay deals with T1, TvFDPF1 (Trichomonas vaginalis, UniProt A2EP06).
T1 construct: gene TVAG_263800; full length, 871 residues, C-terminal His6 (pET30a, E. coli BL21 Star DE3); 272 kDa by gel filtration
T1 sequence (A2EP06 1-871): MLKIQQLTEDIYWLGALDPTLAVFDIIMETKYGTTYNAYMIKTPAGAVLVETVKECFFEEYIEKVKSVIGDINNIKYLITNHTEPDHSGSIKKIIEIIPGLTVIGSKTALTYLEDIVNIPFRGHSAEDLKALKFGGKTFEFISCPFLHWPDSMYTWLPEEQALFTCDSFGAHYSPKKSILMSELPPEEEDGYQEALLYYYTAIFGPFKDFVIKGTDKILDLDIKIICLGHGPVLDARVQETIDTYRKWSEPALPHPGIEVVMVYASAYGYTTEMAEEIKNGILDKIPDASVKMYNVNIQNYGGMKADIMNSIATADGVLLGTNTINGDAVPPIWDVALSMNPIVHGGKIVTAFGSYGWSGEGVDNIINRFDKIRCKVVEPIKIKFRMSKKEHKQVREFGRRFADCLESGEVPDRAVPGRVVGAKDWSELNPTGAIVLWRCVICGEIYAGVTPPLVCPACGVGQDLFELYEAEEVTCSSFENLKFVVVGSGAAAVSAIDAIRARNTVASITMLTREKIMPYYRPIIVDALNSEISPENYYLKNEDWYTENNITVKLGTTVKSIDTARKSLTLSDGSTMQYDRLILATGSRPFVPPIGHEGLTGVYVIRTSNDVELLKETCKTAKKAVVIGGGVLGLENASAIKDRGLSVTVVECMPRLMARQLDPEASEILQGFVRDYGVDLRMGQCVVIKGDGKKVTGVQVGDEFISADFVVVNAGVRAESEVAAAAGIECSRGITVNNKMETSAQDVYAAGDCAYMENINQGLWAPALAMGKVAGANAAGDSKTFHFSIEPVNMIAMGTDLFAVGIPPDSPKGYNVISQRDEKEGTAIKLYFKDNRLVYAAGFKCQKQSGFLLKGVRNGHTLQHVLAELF
Conditions: co-purified cofactor. From the text:
LC-MS quantification of bound flavin on TvFDPF1

For a further assay, the target named is T2, TvFDPF3 (holoTvFDPF3) (Trichomonas vaginalis, UniProt A2E972).
T2 construct: gene TVAG_121610; full length, 871 residues, C-terminal His6 (pET30a, E. coli BL21 Star DE3), ~100 kDa on SDS-PAGE; FDP-core head-to-tail dimer; holo preparation with full FAD/FMN
T2 sequence (A2E972 1-871): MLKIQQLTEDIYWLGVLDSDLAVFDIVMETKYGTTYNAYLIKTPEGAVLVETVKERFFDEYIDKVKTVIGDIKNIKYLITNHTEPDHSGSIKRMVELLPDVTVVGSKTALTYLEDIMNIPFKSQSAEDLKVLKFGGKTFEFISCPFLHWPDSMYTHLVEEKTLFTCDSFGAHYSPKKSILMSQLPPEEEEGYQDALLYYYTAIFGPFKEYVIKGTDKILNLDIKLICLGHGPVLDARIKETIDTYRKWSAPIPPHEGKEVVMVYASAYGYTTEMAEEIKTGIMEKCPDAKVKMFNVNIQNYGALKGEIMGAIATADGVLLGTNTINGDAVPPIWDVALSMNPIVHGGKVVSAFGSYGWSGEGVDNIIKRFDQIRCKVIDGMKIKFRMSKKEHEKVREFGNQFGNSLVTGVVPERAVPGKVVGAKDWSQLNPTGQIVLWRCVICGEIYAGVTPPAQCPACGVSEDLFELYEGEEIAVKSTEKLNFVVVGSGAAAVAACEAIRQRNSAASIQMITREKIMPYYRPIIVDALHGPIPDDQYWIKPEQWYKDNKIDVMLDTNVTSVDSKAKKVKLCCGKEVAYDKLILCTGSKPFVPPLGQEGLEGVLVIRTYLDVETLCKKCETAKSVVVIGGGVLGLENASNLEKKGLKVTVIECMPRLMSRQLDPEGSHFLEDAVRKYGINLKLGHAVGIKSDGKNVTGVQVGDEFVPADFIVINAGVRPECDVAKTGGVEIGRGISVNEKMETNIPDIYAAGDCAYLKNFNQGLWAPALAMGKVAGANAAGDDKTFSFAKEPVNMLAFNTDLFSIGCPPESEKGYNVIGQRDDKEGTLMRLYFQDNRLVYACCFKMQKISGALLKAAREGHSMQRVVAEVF
Conditions: co-purified cofactor, NROR domain. An excerpt: LC-MS quantification of bound flavin on TvFDPF3 (holoTvFDPF3)

A further assay has as its target T3, TvFDPF2 (Trichomonas vaginalis, UniProt A2EVX8).
T3 construct: gene TVAG_049830; full length, 871 residues, C-terminal His6 (pET30a, E. coli BL21 Star DE3); aggregation-prone; poor FAD and FMN occupancy
T3 sequence (A2EVX8 1-871): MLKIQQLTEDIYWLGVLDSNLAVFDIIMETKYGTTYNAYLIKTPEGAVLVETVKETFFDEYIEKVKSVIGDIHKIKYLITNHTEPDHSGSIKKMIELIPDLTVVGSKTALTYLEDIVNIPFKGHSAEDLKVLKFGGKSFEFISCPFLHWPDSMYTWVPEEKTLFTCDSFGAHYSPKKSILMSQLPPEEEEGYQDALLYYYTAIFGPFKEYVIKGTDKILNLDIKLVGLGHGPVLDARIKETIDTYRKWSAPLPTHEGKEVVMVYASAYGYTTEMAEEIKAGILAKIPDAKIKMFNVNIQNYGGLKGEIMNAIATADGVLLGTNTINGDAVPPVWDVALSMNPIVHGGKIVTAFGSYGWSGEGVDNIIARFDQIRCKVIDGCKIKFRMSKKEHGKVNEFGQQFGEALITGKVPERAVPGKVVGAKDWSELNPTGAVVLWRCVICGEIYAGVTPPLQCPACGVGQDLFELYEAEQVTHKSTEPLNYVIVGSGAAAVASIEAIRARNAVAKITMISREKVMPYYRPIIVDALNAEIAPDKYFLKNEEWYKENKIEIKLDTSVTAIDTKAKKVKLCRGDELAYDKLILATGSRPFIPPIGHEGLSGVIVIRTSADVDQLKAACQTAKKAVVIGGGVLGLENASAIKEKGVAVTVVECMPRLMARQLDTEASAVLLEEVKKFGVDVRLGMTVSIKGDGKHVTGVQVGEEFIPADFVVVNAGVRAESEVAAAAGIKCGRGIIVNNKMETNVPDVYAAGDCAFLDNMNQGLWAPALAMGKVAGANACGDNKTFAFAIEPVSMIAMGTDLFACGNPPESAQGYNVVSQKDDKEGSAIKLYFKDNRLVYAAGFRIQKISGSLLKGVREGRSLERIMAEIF
Conditions: co-purified cofactor, poorly occupied. An excerpt:
LC-MS quantification of bound flavin on TvFDPF2

As for `Cc1cc2nc3c(=O)[nH]c(=O)nc-3n(C[C@H](O)[C@H](O)[C@H](O)COP(=O)(O)OP(=O)(O)OC[C@H]3O[C@@H](n4cnc5c(N)ncnc54)[C@H](O)[C@@H]3O)c2cc1C` [FAD], the “FAD per protein monomer” value at TvFDPF1 is recorded as 1.02 ± 0.05 mol per mol monomer; on TvFDPF3 (holoTvFDPF3) it was 0.94 ± 0.09 mol per mol monomer; on TvFDPF2 it was 0.32 ± 0.05 mol per mol monomer.
